# Laboratory results: US20190054067A1, “COMPOSITIONS AND METHODS FOR TREATING COMPULSIVE-LIKE BEHAVIOR IN A SUBJECT” (UNIVERSITY OF THE SCIENCES, priority 2016, published 2019)
# What was measured:
# [1] = cited from earlier work
# [2] = tested on: compulsive-like BIG male mice; test: compulsive-like nest building (NB) behavior; format: in vivo, Mus musculus; settings: for overall nesting scores vs control (saline) / overall nesting scores vs control: 0-24 h; for suppression of NB vs control: chronic (daily s.c., tested day 30); for overall nesting scores vs control: chronic; for effect on NB (ANOVA over dose groups): chronic, 2, 4 and 6 mg/kg groups
# Protocol: (§1) Compulsive-like BIG male mice, Mus musculus, were raised on wood shavings in polypropylene cages (27×17×12 cm) under controlled temperature (22±1° C.) and light (12:12 light-dark cycle) with free access to food (Purina Mills, Lab Diet Mouse Diet #5015, St. Louis, Mo.) and water. Animals were approximately 12-16 weeks of age at the start of each experiment.
# (§2) Deformylflustrabromine hydrochloride (dFBr; Abcam Biochemicals) was dissolved in physiological saline (pH=6.7) to yield final doses of 2.0 mg/kg (0.27 mg/mL), 4 mg/kg (0.53 mg/mL) and 6 mg/kg (0.80 mg/mL). Saline was used as a vehicle control (0 mg/kg). A mouse of 40 g received an injection volume of 0.3 mL. Injection volumes were proportionally adjusted according to the body weight of individual animals.
# (§3) Acute Study: Male BIG mice were divided into four treatment groups comprising vehicle (sterile saline), 2 mg/kg, 4 mg/kg and 6 mg/kg. Animals in each group (n=12 per group) were tested for nesting on day 1, MB on day 3 and open field (OF) on day 5. On the first day of testing animals randomly received dFBr or vehicle subcutaneously and in subsequent tests received the same dose. Days 2 and 4 were employed to avoid any residual effects of dFBr from previous administration. For nesting, data were collected after 1, 2, 3, 4, 5 and 24 h due to the progressive nature of the NB (The BIG mice typically get excited and indulge in excessive and repetitive NB when introduced to cotton for the first 3-4 h in the light cycle. This excessive and repetitive nesting activity resumes again in the dark cycle). MB and OF behavior was performed 2 h after dFBr administration (FIG. 1).
# (§4) Chronic Study; Since the foundation of the animal model was established through effective reversal of compulsive-like NB and MB behaviors by chronic fluoxetine treatment, a chronic regimen was also conducted to establish the sustained and long term effects of dFBr on NB and MB. Animals belonging to 0, 2, 4 and 6 mg/kg dose group (n=12 per group) received single subcutaneous injection of dFBr or saline daily for 32 days. NB, MB and OF behaviors were assessed in the final week (weeks 5) after dFBr administration (NB after 1, 2, 3, 4, 5 and 24 h, and MB after 2 h of drug injection). NB was performed on day 30, MB on day 31 and OF on day 32 (FIG. 1).
# Nest-building behavior was performed to assess compulsive-like behavior in the mice. For both acute and chronic studies, immediately following subcutaneous injection of dFBr, compulsive-like male mice were singly housed and provided with a pre-weighed roll of cotton (Mountain Mist cotton batting, Troy, Inc., Chicago, Ill.) in the cage-top food hopper. The cotton roll was weighed after 1, 2, 3, 4, 5 and 24 hours. Nesting behavior was quantified by the grams of cotton used during each testing period.
# (§5) Statistical analysis was performed in Graphpad Prism (GraphPad Software, Inc) and Statistical Analysis System Software (Version 9.4, Cary, N.C.). Nest-building (grams of cotton), marble burying (number of marbles at least ⅔ buried) and open field measures (time in center and total distance travelled) were expressed as the mean±standard error of the mean (SEM). The nest building data were shown as grams of cotton used, whereas the statistical analysis was conducted on the square-root transformed nesting scores in order to normalize the data (Bult & Lynch, 2000, Behavior Genetics 30:193-206). Nesting scores at different time points, marble burying and open field results were analyzed by one-way analysis of variance (ANOVA), whereas overall drug and drug by time interaction effect between 0-5 hours was done by two-way analysis of variance (ANOVA). Pairwise comparisons for significant differences were tested by the post-hoc Bonferroni multiple comparison test. A probability level of p<0.05 was used as an index of statistical significance in all cases.
# [3] = target: high sensitivity (HS) α4β2 receptors (Homo sapiens, UniProt P17787+P43681); settings: cited from earlier work
# [4] = target: low sensitivity (LS) α4β2 receptors (Homo sapiens, UniProt P17787+P43681); settings: cited from earlier work
# [5] = tested on: compulsive-like BIG male mice; test: compulsive-like marble burying (MB) behavior; format: in vivo, Mus musculus; settings: for marble-burying behavior (marbles at least 2/3 buried) vs control: acute, 2 h after administration; for suppression of MB vs control: chronic, fifth week (day 31), 2 h after injection
# Protocol: as §1, §2, §3, §4
# The marble-burying test is an effective test for determining compulsive-like behavior in mice. […] Two hours after dFBr administration, compulsive-like male mice were individually introduced to a polypropylene cage (37×21×14 cm) containing 20 glass marbles (10 mm in diameter) evenly spaced on 5 cm deep wood chip bedding without access to food or water for 20 min. Testing was carried out in the testing room separate from the housing room. The total number of marbles buried at least ⅔ in the 20-min period was quantified as compulsive-like digging behavior. After the 20-min test, the animals were returned to their home cages.
# as §5
# [6] = tested on: compulsive-like BIG male mice; test: open field (OF) test, anxiety-like and locomotor behavior; format: in vivo, Mus musculus
# Protocol: as §1, §2
# Acute Study: Male BIG mice were divided into four treatment groups comprising vehicle (sterile saline), 2 mg/kg, 4 mg/kg and 6 mg/kg. Animals in each group (n=12 per group) were tested for nesting on day 1, MB on day 3 and open field (OF) on day 5. On the first day of testing animals randomly received dFBr or vehicle subcutaneously and in subsequent tests received the same dose. Days 2 and 4 were employed to avoid any residual effects of dFBr from previous administration. […]
# as §4, with “Animals belonging to 0, 2, 4 and 6 mg/kg dose group (n=12 per group) received single subcutaneous injection of dFBr or saline daily for 32 days.” left out, “NB was performed on day 30, MB on day 31 and OF on day 32 (FIG. 1).” left out
# Anxiety-like behaviors were determined through the open field test. […] The animals were placed in the center of the open field, and their behavior was video taped for 3 min and analyzed with the aid of ANYMAZE™ video tracking software (Stoelting Co., Ill.). The time spent in the center (anxiety-like measure) and total distance travelled (locomotion) in the entire open field were measured. […]
# Statistical analysis was performed in Graphpad Prism (GraphPad Software, Inc) and Statistical Analysis System Software (Version 9.4, Cary, N.C.). Nest-building (grams of cotton), marble burying (number of marbles at least ⅔ buried) and open field measures (time in center and total distance travelled) were expressed as the mean±standard error of the mean (SEM). […] Nesting scores at different time points, marble burying and open field results were analyzed by one-way analysis of variance (ANOVA), whereas overall drug and drug by time interaction effect between 0-5 hours was done by two-way analysis of variance (ANOVA). […]
# compulsive-like BIG mice = settings: cited from earlier work
# [7] = tested on: compulsive-like BIG male mice; settings: compulsive-like BIG mice (Greene-Schloesser et al., 2011); cited from earlier work
# [8] = tested on: compulsive-like BIG male mice; settings: compulsive-like BIG mice (Greene-Schloesser et al., 2011); cited from earlier work; remark: listed apart in the source
# [9] = acute, 0, 2, 4, 6 mg/kg s.c., 2 h after administration
# [10] = chronic regimen (day 32), 0, 2, 4, 6 mg/kg
# low sensitivity (LS) α4β2 receptors, sequence (P43681 29-627 limits assumed): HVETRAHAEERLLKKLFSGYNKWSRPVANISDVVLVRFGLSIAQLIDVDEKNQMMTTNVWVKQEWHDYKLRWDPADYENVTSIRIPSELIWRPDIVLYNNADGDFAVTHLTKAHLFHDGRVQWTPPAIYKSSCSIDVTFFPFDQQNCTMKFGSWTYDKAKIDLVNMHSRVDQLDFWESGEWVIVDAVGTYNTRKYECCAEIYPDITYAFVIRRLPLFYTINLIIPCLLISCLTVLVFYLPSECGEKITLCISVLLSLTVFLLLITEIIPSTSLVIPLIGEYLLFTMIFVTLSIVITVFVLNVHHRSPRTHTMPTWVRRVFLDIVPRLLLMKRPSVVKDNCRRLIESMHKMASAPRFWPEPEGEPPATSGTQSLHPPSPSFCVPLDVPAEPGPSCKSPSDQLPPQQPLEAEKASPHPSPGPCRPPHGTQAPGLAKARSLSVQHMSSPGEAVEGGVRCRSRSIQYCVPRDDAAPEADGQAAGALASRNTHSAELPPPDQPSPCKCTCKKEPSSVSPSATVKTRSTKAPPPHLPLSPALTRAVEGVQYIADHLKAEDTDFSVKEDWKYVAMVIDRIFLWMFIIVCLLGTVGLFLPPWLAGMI
# low sensitivity (LS) α4β2 receptors, sequence (P17787 26-502): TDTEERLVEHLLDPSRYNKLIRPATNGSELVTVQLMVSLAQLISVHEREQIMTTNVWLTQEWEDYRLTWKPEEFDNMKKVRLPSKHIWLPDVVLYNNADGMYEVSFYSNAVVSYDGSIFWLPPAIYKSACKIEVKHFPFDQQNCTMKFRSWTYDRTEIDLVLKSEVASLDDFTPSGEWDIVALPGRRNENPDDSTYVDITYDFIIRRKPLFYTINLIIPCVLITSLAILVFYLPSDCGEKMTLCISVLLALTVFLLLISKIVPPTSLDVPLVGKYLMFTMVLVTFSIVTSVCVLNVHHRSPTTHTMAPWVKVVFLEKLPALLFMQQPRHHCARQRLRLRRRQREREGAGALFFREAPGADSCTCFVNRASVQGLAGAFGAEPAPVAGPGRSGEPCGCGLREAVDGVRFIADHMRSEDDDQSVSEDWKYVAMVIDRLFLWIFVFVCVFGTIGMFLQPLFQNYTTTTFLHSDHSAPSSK
# high sensitivity (HS) α4β2 receptors, sequence (P43681 29-627 limits assumed): as the sequence (P43681 29-627 limits assumed) above
# high sensitivity (HS) α4β2 receptors, sequence (P17787 26-502): as the sequence (P17787 26-502) above
smiles,measurement,setting,value
"C=CC(C)(C)c1[nH]c2cc(Br)ccc2c1CCNC [dFBr, 2-[6-bromo-2-(2-methylbut-3-en-2-yl)-1H-indol-3-yl]-N-methylethanamine]",amount reaching the cerebrospinal fluid,[1]; after 90 min of subcutaneous administration,around 36%
same,time of peak levels in the cerebrospinal fluid,"[1]; rats, after administration",90 min
same,nesting (cotton used) vs control (saline),"[2]; acute, 2 mg/kg s.c., 0-1 h",no significant attenuation of nesting
same,overall nesting scores vs control (saline),"[2]; acute, 2 mg/kg s.c.",significantly below the control group
same,nesting (cotton used) vs control (saline),"[2]; acute, 2 mg/kg s.c., 1-2 h",no significant effect
same,nesting (cotton used) vs control (saline),"[2]; acute, 2 mg/kg s.c., 2-3 h",No significant difference
same,nesting (cotton used) vs control (saline),"[2]; acute, 2 mg/kg s.c., 3-4 h",not significantly different
same,nesting (cotton used) vs control (saline),"[2]; acute, 2 mg/kg s.c., 4-5 h",not significantly different
same,nesting (cotton used) vs control (saline),"[2]; acute, 2 mg/kg s.c., 5-24 h",suppressed the nesting score significantly
same,fractional nesting score (nesting score divided by average of vehicle group),"[2]; acute, 2 mg/kg s.c., first 5 hours",~1
same,nesting (cotton used) vs control (saline),"[2]; acute, 2 mg/kg s.c., overall 0-5 h",did not attenuate nesting
same,time of greatest suppression of nesting (fractional nesting score),"[2]; acute, 4 mg/kg s.c.",1 to 2 h
same,nesting (cotton used) vs control (saline),"[2]; acute, 4 mg/kg s.c., 0-1 h",no significant attenuation of nesting
same,overall nesting scores vs control (saline),"[2]; acute, 4 mg/kg s.c.",significantly below the control group
same,nesting (cotton used) vs control (saline),"[2]; acute, 4 mg/kg s.c., 1-2 h",significantly attenuated nesting
same,nesting (cotton used) vs control (saline),"[2]; acute, 4 mg/kg s.c., 2-3 h",No significant difference
same,nesting (cotton used) vs control (saline),"[2]; acute, 4 mg/kg s.c., 3-4 h",significantly reduced
same,nesting (cotton used) vs control (saline),"[2]; acute, 4 mg/kg s.c., 4-5 h",not significantly different
same,nesting (cotton used) vs control (saline),"[2]; acute, 4 mg/kg s.c., 5-24 h",suppressed the nesting score significantly
same,nesting (cotton used) vs control (saline),"[2]; acute, 4 mg/kg s.c., overall 0-5 h",significantly reduced
same,time of greatest suppression of nesting (fractional nesting score),"[2]; acute, 6 mg/kg s.c.",1 to 2 h
same,nesting (cotton used) vs control (saline),"[2]; acute, 6 mg/kg s.c., 0-1 h",no significant attenuation of nesting
same,overall nesting scores vs control (saline),"[2]; acute, 6 mg/kg s.c.",significantly below the control group
same,nesting (cotton used) vs control (saline),"[2]; acute, 6 mg/kg s.c., 1-2 h",significantly attenuated nesting
same,nesting (cotton used) vs control (saline),"[2]; acute, 6 mg/kg s.c., 2-3 h",significantly reduced
same,nesting (cotton used) vs control (saline),"[2]; acute, 6 mg/kg s.c., 3-4 h",significantly reduced
same,nesting (cotton used) vs control (saline),"[2]; acute, 6 mg/kg s.c., 4-5 h",not significantly different
same,nesting (cotton used) vs control (saline),"[2]; acute, 6 mg/kg s.c., 5-24 h",suppressed the nesting score significantly
same,nesting (cotton used) vs control (saline),"[2]; acute, 6 mg/kg s.c., overall 0-5 h",significantly reduced
same,suppression of NB vs control,"[2]; 2 mg/kg, 1-2 h",main attenuating effects
same,suppression of NB vs control,"[2]; 4 mg/kg, 0-1 h",most effective doses
same,suppression of NB vs control,"[2]; 6 mg/kg, 0-1 h",most effective doses
same,suppression of NB vs control,"[2]; 6 mg/kg, 1-2 h",main attenuating effects
same,overall nesting scores vs control,[2]; 2 mg/kg,significantly below the control group
same,overall nesting scores vs control,[2]; 4 mg/kg,significantly below the control group
same,overall nesting scores vs control,[2]; 6 mg/kg,significantly below the control group
same,effect on NB (ANOVA over dose groups),[2]; 2-3 h,No significant effect
same,effect on NB (ANOVA over dose groups),[2]; 3-4 h,No significant effect
same,effect on NB (ANOVA over dose groups),[2]; 4-5 h,No significant effect
same,potentiation of acetylcholine-induced whole cell responses,[3],370%
same,EC50,[3]; read-out: EC50 of potentiation,40 µM
same,potentiation of acetylcholine-induced whole cell responses,[4],260%
same,EC50,[4]; read-out: EC50 of potentiation,2.5 µM
same,marble-burying behavior (marbles at least 2/3 buried) vs control,[5]; 2 mg/kg s.c.,decreased marble-burying behavior
same,marble-burying behavior (marbles at least 2/3 buried) vs control,[5]; 4 mg/kg s.c.,decreased marble-burying behavior
same,marble-burying behavior (marbles at least 2/3 buried) vs control,[5]; 6 mg/kg s.c.,decreased marble-burying behavior
same,reduction of MB behavior vs control,"[5]; chronic regimen, 2 mg/kg, 2 h time point",not significant
same,suppression of MB vs control,[5]; 4 mg/kg,maximum suppression of MB
same,suppression of MB vs control,[5]; 6 mg/kg,maximum suppression of MB
same,time spent in center of the OF (anxiety-like),[6]; [9],No significant differences
same,total distance traveled (locomotor activity),[6]; [9],not different among the treatment groups
same,time in center,[6]; [10],did not differ among treatment groups
same,total distance,[6]; [10],did not differ among treatment groups
CNCCC(Oc1ccc(C(F)(F)F)cc1)c1ccccc1 (centres unmarked) [fluoxetine],overall wheel-running locomotion,compulsive-like BIG mice,failed to reduce
same,NB behavior,[7],significantly attenuated
same,MB behavior,[8],significantly attenuated
